Experimental data as given in US4605744A, “Imidazole derivatives” (Hoffmann-La Roche Inc., priority 1985, dated 1986).
Values after ≈ are worked out from the molar mass of the structure shown. Counter-ions that a name gives are not always drawn. Like-named read-outs stand apart in the source and are kept apart here.

What was measured:
Format in all cases: cell-based
E. coli 257 = experiment: In vitro antibacterial activity (MIC, Mueller-Hinton broth); settings: Escherichia coli, 257
Procedure: Drug dilutions are prepared in Mueller-Hinton broth ranging from 128 to 0.008 μg/ml. The diluted agents are dispensed in 100 μl amounts into the wells of a 96-well tray and used immediately or frozen at -10° to -70° C. until needed. Using an automated inoculator, 1.5 μl of a 10^-2 dilution of an overnight culture is added to each well of the tray. The tops of the trays are then sealed using transparent tape and incubated overnight at 37° C. The trays are examined with the aid of a viewer. The lowest concentration at which no growth is observed is considered to be the minimum inhibitory concentration (MIC).

C. freundii 8ASM = experiment: In vitro antibacterial activity (MIC); settings: Citrobacter freundii, 8ASM, C. freundii 8ASM; read-out: MIC
How it was run: (§1)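 Mueller-Hinton broth carries the compound at 128–0.008 μg/ml; diluted drug may be used fresh or stored frozen at -10° to -70° C before use. Wells are seeded with a 10^-2 dilution of overnight culture and incubated overnight at 37° C.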

E. aerogenes 503-478 = experiment: In vitro antibacterial activity (MIC); settings: Klebsiella aerogenes, 503478, E. aerogenes 503-478; read-out: MIC
How it was run: as §1

E. aerogenes 8 = experiment: In vitro antibacterial activity (MIC); settings: Klebsiella aerogenes; E. aerogenes 8; read-out: MIC
How it was run: as §1

E. cloacae 214 = experiment: In vitro antibacterial activity (MIC)
How it was run: as §1

E. cloacae 24 = experiment: In vitro antibacterial activity (MIC); settings: Enterobacter cloacae, 24, E. cloacae 24; read-out: MIC
How it was run: as §1

E. cloacae 5699 = experiment: In vitro antibacterial activity (MIC); settings: Enterobacter cloacae, 5699, E. cloacae 5699; read-out: MIC
How it was run: as §1

E. cloacae 6951 = experiment: In vitro antibacterial activity (MIC); settings: Enterobacter cloacae, 6951, E. cloacae 6951; read-out: MIC
How it was run: as §1

E. cloacae 9570A = experiment: In vitro antibacterial activity (MIC); settings: Enterobacter cloacae
How it was run: as §1

E. coli 503-455 = experiment: In vitro antibacterial activity (MIC)
How it was run: as §1

K. pneumoniae 8357 = experiment: In vitro antibacterial activity (MIC)
How it was run: as §1

P. aeruginosa 5700 = experiment: In vitro antibacterial activity (MIC); settings: Pseudomonas aeruginosa, 5700, P. aeruginosa 5700; read-out: MIC
How it was run: as §1

P. aeruginosa B = experiment: In vitro antibacterial activity (MIC); settings: Pseudomonas aeruginosa, read-out: MIC
How it was run: as §1

P. aeruginosa POW 151 = experiment: In vitro antibacterial activity (MIC); settings: Pseudomonas aeruginosa, POW151
How it was run: as §1

P. mirabilis 190 = experiment: In vitro antibacterial activity (MIC); settings: Proteus mirabilis, 190, P. mirabilis 190; read-out: MIC
How it was run: as §1

P. mirabilis 90 = experiment: In vitro antibacterial activity (MIC); settings: Proteus mirabilis, 90, P. mirabilis 90; read-out: MIC
How it was run: as §1

S. aureus 1059B = experiment: In vitro antibacterial activity (MIC); settings: Staphylococcus aureus, read-out: MIC
How it was run: as §1

S. aureus Giorgio = experiment: In vitro antibacterial activity (MIC); settings: Staphylococcus aureus, S. aureus Giorgio; read-out: MIC
How it was run: as §1

S. faecalis C1 = experiment: In vitro antibacterial activity (MIC); settings: Enterococcus faecalis; S. faecalis C1; read-out: MIC
How it was run: as §1

S. marcescens S2 = experiment: In vitro antibacterial activity (MIC); settings: Serratia marcescens; S. marcescens S2; read-out: MIC
How it was run: as §1

S. marcescens S3 = experiment: In vitro antibacterial activity (MIC); settings: Serratia marcescens; S. marcescens S3; read-out: MIC
How it was run: as §1

S. marcescens S5 = experiment: In vitro antibacterial activity (MIC); settings: Serratia marcescens, S5, S. marcescens S5; read-out: MIC
How it was run: as §1

S. pneumoniae 6301 = experiment: In vitro antibacterial activity (MIC); settings: Streptococcus pneumoniae, 6301, S. pneumoniae 6301; read-out: MIC
How it was run: as §1

Row | Structure (SMILES) | MIC (E. coli 257) | MIC (C. freundii 8ASM) | MIC (E. aerogenes 503-478) | MIC (E. aerogenes 8) | MIC (E. cloacae 24) | MIC (E. cloacae 5699) | MIC (E. cloacae 6951) | MIC (P. aeruginosa 5700) | MIC (P. aeruginosa B) | MIC (P. aeruginosa POW 151) | MIC (P. mirabilis 190) | MIC (P. mirabilis 90) | MIC (S. aureus 1059B) | MIC (S. aureus Giorgio) | MIC (S. faecalis C1) | MIC (S. marcescens S2) | MIC (S. marcescens S3) | MIC (S. marcescens S5) | MIC (S. pneumoniae 6301) | also measured
1 | CC1(C)S[C@@H]2[C@H](N=CN3CCC(Cn4ccnc4)CC3)C(=O)N2[C@H]1C(=O)O [Compound A] | 0.125 µg/mL (≈ 0.319 µM) | 0.062 µg/mL (≈ 0.158 µM) | 0.062 µg/mL (≈ 0.158 µM) | 32 µg/mL (≈ 81.7 µM) | 0.5 µg/mL (≈ 1.28 µM) | 0.5 µg/mL (≈ 1.28 µM) | 4 µg/mL (≈ 10.2 µM) | 0.25 µg/mL (≈ 0.639 µM) | 0.25 µg/mL (≈ 0.639 µM) | > 128 µg/mL | 0.25 µg/mL (≈ 0.639 µM) | 1 µg/mL (≈ 2.55 µM) | 32 µg/mL (≈ 81.7 µM) | 8 µg/mL (≈ 20.4 µM) | 128 µg/mL (≈ 327 µM) | 0.25 µg/mL (≈ 0.639 µM) | 0.25 µg/mL (≈ 0.639 µM) | 2 µg/mL (≈ 5.11 µM) | 1 µg/mL (≈ 2.55 µM) | MIC (E. cloacae 214; Enterobacter cloacae, 214): 0.125 µg/mL (≈ 0.319 µM); MIC (E. cloacae 9570A; read-out: MIC): 0.5 µg/mL (≈ 1.28 µM); MIC (E. coli 503-455; Escherichia coli, 503455, E. coli 503-455, read-out: MIC): 2 µg/mL (≈ 5.11 µM); MIC (K. pneumoniae 8357; Klebsiella pneumoniae, 8357, K. pneumoniae 8357, read-out: MIC): 0.25 µg/mL (≈ 0.639 µM)
2 | CC1(C)S[C@@H]2[C@H](N=CN3CCC(CCCn4ccnc4[N+](=O)[O-])CC3)C(=O)N2[C@H]1C(=O)O [K, [2S-(2alpha,5alpha,6beta)]-6-[[[4-[3-(2-nitro-1H-imidazol-1-yl)propyl]piperidinyl]methylene]amino]-3,3-dimethyl-7-oxo-4-thia-1-azabicyclo[3.2.0]heptane-2-carboxylic acid hydrochloride 0.66 molar hydrate] | 0.5 µg/mL | 0.25 µg/mL | 4 µg/mL | 8 µg/mL | 1 µg/mL | 1 µg/mL | 16 µg/mL | 4 µg/mL | 0.25 µg/mL | > 128 µg/mL | 0.5 µg/mL | 8 µg/mL | 128 µg/mL | 8 µg/mL | 128 µg/mL | 2 µg/mL | 4 µg/mL | 8 µg/mL | 1 µg/mL | MIC (E. cloacae 214; Enterobacter cloacae, 214, E. cloacae 214, read-out: MIC): 0.5 µg/mL; MIC (E. cloacae 9570A; 9570A): 1 µg/mL; MIC (E. coli 503-455; Escherichia coli, 503455): 4 µg/mL; MIC (K. pneumoniae 8357; Klebsiella pneumoniae, 8357): 2 µg/mL
